Reference: patent publication US12668589B2, “N-formamidopyrazoline derivative as P2X3 receptor antagonist and use thereof” (HANGZHOU WESTAN PHARMACEUTICAL TECHNOLOGY CO., LTD, priority 2020, dated 2026)

Tests used:
human P2X4 = target: T1, human P2X4 (Homo sapiens, UniProt Q99571); assay: Inhibitory activity against human P2X4 (electrophysiological method); format: cell-based; settings: read-out: hP2X4 (IC50)
T1 construct: expressed in transfected cells; host or cells: HEK293
T1 sequence (Q99571 1-388): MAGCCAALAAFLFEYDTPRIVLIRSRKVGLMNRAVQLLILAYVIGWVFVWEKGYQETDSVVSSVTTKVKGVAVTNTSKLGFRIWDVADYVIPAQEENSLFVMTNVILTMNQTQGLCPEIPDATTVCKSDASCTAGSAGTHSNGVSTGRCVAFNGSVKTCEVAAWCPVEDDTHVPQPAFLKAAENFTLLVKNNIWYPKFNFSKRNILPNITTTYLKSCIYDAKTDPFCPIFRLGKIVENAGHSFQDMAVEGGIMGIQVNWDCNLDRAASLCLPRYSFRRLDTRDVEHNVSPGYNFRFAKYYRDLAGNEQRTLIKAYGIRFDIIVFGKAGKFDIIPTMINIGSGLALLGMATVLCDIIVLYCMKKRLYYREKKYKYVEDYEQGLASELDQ

human P2X3 [1] = target: T2, human P2X3 (Homo sapiens, UniProt P56373); assay: cell-based
T2 sequence (P56373 1-397): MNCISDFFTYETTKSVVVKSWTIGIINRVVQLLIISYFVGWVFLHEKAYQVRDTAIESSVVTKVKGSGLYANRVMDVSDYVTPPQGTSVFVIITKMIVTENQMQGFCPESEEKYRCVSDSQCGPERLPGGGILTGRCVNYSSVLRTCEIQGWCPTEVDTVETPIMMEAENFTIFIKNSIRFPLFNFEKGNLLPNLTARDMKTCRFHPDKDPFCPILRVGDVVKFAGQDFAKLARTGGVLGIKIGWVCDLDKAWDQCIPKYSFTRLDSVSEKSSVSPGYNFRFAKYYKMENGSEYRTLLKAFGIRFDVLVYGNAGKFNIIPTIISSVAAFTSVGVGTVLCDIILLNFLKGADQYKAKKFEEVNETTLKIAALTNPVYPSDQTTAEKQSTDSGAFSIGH

human PAR-1 = target: T3, human PAR-1 (Homo sapiens, UniProt P25116); assay: Inhibitory activity against PAR-1, calcium ion flux fluorescence method (FLIPR); format: cell-based; settings: HEK293/Ga15 cells expressing human PAR-1, TFLLR-NH2 10 μM, starting concentration 30 μM
T3 construct: host or cells: HEK293/Ga15 recombinant cell line
T3 sequence (P25116 22-425): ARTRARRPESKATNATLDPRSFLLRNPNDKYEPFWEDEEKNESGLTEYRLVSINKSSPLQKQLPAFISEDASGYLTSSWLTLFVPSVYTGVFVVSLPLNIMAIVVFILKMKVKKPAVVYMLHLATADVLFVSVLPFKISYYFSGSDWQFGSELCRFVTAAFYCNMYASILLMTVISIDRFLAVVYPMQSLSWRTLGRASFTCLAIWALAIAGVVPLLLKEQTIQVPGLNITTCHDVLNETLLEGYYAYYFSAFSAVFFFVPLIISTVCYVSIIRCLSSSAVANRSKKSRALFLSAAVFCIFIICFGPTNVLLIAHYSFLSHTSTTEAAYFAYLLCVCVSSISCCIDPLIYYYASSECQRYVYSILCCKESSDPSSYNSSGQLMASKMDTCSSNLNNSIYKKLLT
Description: The inhibitory activity of the title compounds against human PAR-1 was determined by a calcium ion flux fluorescence method (an FLIPR method). The method thereof was reported in the literature of Zhong et al. [Zhong et al. J Biomol Struct Dyn, 2017, 35(13):2853].
An HEK293/Ga15 recombinant cell line (HD Biosciences, Shanghai, China) stably expressing human PAR-1 was cultured in a DMEM (Thermo Fisher Scientific, Shanghai) culture solution (containing 10% calf serum, 800 μg/mL G418). Incubator conditions were 37° C. and an air humidity with 5% CO2.
On the first day, 20 μL per well of PAR-1 cells at a concentration of 4E+5 cells/mL were seeded in a 384-well analysis plate (Corning 3712). […] On the second day, a culture solution in each well was poured off. Then, 20 μL of 1×loading dye (2 μM Fluo-8 AM in 1×HBSS with 20 mM HEPES, 1 mM Probenecid, 0.025% Pluronic F-127 assay buffer) was added in each well. The cell analysis plate was cultured for 1 hour at a room temperature.
The compounds were dissolved into 100% DMSO to prepare a 10 mM stock solution, which was stored at −20° C. On the day of use, the compound stock solution was thawed at a room temperature. Each compound was subjected to 1:3 serial dilution at 11 concentration points with a DMEM culture solution with a starting concentration of 30 μM. Each compound was subjected to double dilution for testing. A positive control compound was diluted in the same way with SCH79797 with a starting concentration of 30 μM.
The cell analysis plate was placed in a FLIPR instrument (Molecular Device) and 10 μL of compounds (3× of a final concentration) in a compound plate was added to corresponding wells of the cell analysis plate. After 10 minutes, 10 μL of TFLLR-NH2 (TFA) (a final concentration of 10 μM) was added to each well to stimulate generation of intracellular calcium flux signals. Ca^++-dependent fluorescence signals were continuously monitored at excitation wavelengths of 470/495 nm and emission wavelengths of 515/575 nm to analyze the inhibitory activity of the compounds.
Data were collected and analyzed by using an FLIPR program. The inhibitory (or agonistic) activity of the compounds at each concentration was assessed by fluorescence peaks. IC50 values of the compounds were calculated by using EXCEL and PRISM programs.

gpP2X3 = target: T4, gpP2X3 (Cavia porcellus, UniProt H0VWY5); assay: Inhibitory activity against P2X3 in guinea pigs (electrophysiological method); format: cell-based; settings: guinea pig P2X3, electrophysiological method
T4 sequence (H0VWY5 1-391): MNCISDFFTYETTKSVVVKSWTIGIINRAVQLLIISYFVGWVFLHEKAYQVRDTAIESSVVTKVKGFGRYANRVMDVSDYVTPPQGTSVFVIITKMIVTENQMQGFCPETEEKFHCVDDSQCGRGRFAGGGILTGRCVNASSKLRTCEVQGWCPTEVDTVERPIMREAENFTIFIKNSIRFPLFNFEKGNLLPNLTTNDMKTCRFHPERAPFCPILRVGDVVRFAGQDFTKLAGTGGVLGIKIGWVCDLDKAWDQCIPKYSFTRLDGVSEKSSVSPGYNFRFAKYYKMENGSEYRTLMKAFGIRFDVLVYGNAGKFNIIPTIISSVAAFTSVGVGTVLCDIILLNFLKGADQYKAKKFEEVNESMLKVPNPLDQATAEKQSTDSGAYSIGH

human P2X2/3 = target: T5, human P2X2/3 (Homo sapiens, UniProt P56373+Q9UBL9); assay: Inhibitory activity against human P2X2/3 (electrophysiological method); format: cell-based; settings: read-out: hP2X2/3 (IC50)
T5 construct: expressed in transfected cells; host or cells: HEK293
T5 sequence (P56373 1-397): T2 sequence (P56373 1-397)
T5 sequence (Q9UBL9 1-471): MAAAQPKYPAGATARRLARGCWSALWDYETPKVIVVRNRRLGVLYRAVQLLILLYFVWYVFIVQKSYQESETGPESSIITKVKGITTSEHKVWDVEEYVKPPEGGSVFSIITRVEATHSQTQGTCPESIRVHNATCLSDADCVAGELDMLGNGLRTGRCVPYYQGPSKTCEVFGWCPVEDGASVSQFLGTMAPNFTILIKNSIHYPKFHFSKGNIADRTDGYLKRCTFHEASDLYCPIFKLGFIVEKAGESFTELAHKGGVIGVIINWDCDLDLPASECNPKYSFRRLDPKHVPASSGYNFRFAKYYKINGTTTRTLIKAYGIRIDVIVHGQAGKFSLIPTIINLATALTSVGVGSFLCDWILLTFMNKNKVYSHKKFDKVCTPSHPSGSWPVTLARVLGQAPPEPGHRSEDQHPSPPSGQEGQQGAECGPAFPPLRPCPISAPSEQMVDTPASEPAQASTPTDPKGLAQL

rP2X3 = target: T6, rP2X3 (Rattus norvegicus, UniProt P49654); assay: Inhibitory activity against P2X3 in rats (electrophysiological method); format: cell-based
T6 construct: expressed in transfected cells; host or cells: HEK293
T6 sequence (P49654 1-397): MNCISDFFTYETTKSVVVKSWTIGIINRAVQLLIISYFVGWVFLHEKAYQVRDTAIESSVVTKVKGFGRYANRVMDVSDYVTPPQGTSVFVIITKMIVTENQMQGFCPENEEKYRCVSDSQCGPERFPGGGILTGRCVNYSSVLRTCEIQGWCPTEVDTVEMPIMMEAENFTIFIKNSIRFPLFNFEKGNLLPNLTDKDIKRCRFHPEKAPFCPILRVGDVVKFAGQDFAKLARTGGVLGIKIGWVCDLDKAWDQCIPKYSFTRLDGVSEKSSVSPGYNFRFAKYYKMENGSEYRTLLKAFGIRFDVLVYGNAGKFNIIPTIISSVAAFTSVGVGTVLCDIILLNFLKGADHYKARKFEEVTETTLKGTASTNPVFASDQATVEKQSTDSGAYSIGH

chronic cough = settings: literature, cited from earlier work
taste of SD rats = assay: Rat taste test (quinine water / tap water drinking); format: in vivo
Description: Experimental purpose: to observe an effect of title compounds on taste of SD rats.
• 1.1) Animals and grouping: 40 male SD rats, with about 300 grams per rat. […] A bottle of normal drinking water and a bottle of drinking water containing 0.3 mM quinine hydrochloride were placed in each cage at the same time, and left and right positions where the two bottles of water were placed in all animal feeding cages were the same. After the animals were allowed to freely drink water for 15 minutes, drinking amounts of the two bottles of water were measured respectively to the nearest 0.1 mL. • 1.5) Data statistics: drinking amounts of quinine bitter water and tap water and a total water drinking amount thereof as well as a percentage of quinine water in the total water drinking amount were counted respectively. Water drinking amounts of the bitter water of animals in each group were compared. Whether differences between groups were significant was compared by analysis of variance. 2) Experimental Results

human P2X3 [2] = target: T2, human P2X3; assay: Inhibitory activity against human P2X3, perforated patch clamp (electrophysiological method); settings: read-out: hP2X3 (IC50), transfected HEK293 cells, agonist ATP 1 μM, compounds pre-administered for 2 minutes

Compound	IC50 (human P2X4) [µM]	IC50 (human P2X3 [1]) [µM]	IC50 (human PAR-1) [µM]	IC50 (gpP2X3) [µM]	IC50 (rP2X3) [µM]	also measured
Cc1ccc(C2=NN(C(=O)N[C@H](C)c3ccc(C(F)(F)F)nc3)C[C@@H]2N2CCCC2=O)cc1 [Compound 21]	> 20	0.129	> 30			
Cc1ccc(C2=NN(C(=O)N[C@H](C)c3ccc(C(F)(F)F)nc3)C[C@@H]2N2CCOC2=O)nc1 [Compound 23, (S)-4-(2-oxooxazolidin-3-yl)-3-(5-methylpyridin-2-yl)-N-((R)-1-(6-(trifluoromethyl)pyridin-3-yl)ethyl)-4,5-dihydro-1H-pyrazol-1-carboxamide]	> 20	0.038	> 30	0.359	0.103	IC50 (human P2X2/3): 1.15 µM
COc1cc(C(C)C)c(Oc2cnc(N)nc2N)cc1S(N)(=O)=O [AF-219, reference compound]						frequency and severity of cough in patients with chronic cough (chronic cough; clinical data): significantly effective in reducing the frequency and severity of cough; taste disorders in treated subjects (chronic cough; clinical trials): can lead to taste disorders; Water drinking amount, Tap water (taste of SD rats; 10 mg/kg intraperitoneal injection, free drinking 15 minutes, amounts measured to the nearest 0.1 mL): 8.69; Water drinking amount, Sum (taste of SD rats; 10 mg/kg intraperitoneal injection, tap plus quinine water, 15 minutes, measured to the nearest 0.1 mL): 14.02; Water drinking amount, Quinine (taste of SD rats; 10 mg/kg intraperitoneal injection, water with 0.3 mM quinine hydrochloride, 15 minutes, measured to the nearest 0.1 mL): 5.33; drinking amount of bitter water compared with solvent control group (taste of SD rats; 10 mg/kg intraperitoneal, result in words): increased significantly
(S)-4-(3-oxomorpholin-4-yl)-3-(4-methylphenyl])-N- ((R)-1-(3-methyl-1,2,4-oxadiazol-5-yl)ethyl)-4,5-d ihydro-1H-pyrazol-1-carboxamide [Compound 46]						IC50 (human P2X3 [2]): 0.151 µM
Cc1ccc(C2=NN(C(=O)N[C@H](C)c3cnc(C(F)(F)F)nc3)C[C@H]2N2CCCC2=O)cc1 [Compound 32a, (R)-4-(2-oxopyrrolidin-1-yl)-3-(4-methylphenyl)-N-((R)-1-(2-(trifluoromethyl)pyrimidin-5-yl)ethyl)-4,5-dihydro-1H-pyrazol-1-carboxamide]	> 20	0.082				
Cc1ccc(C2=NN(C(=O)N[C@H](C)c3ccc(C(F)(F)F)nc3)C[C@H]2N2CCOC2=O)cc1 [Compound 22a, (R)-4-(2-oxooxazolidin-3-yl)-3-(4-methylphenyl)-N-((R)-1-(6-(trifluoromethyl)pyridin-3-yl)ethyl)-4,5-dihydro-1H-pyrazol-1-carboxamide]	> 20	0.038		0.578	0.057	
Cc1ccc(C2=NN(C(=O)N[C@H](C)c3ccc(C(F)(F)F)nc3)C[C@@H]2N2CCN(C)CC2=O)cc1 [Compound 17, (S)-4-(4-methyl-2-oxopiperazin-1-yl)-3-(4-methylphenyl)-N-((R)-1-(6-(trifluoromethyl)pyridin-3-yl)ethyl)-4,5-dihydro-1H-pyrazol-1-carboxamide]			> 30	0.387	0.14	
